Source: PubChem BioAssay AID1963985 (Molecular Pharmacology Branch, DTP, NCI, 2024)
pIC50: −log10 of the molar value.

System: 252836-082-R-J2-PDC tumor spheroids, viability
Assay: Anticancer human tumor 252836-082-R-J2-PDC patient-derived head and neck squamous cell carcinoma cell line growth inhibition [PI3K]
Settings: spheroids with HUVEC and MSC; for pIC50: curve of first compound; for viability, T/C: stronger effect = lower value; active = viability on the fitted dose curve at most 10% of control; inactive = the rest
How it was run: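 Complex 3D spheroids (cancer cells + endothelial HUVEC + mesenchymal stem cells); drug pairs of targeted agent x inavolisib/alpelisib/duvelisib/copanlisib; half-log series from ~Cmax, max 10 microM if Cmax unknown; endpoint viability.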

[1] = second compound 0.0316 µM, first compound 0.000316 µM
[2] = second compound 0.0316 µM, first compound 0.001 µM
[3] = second compound 0.0316 µM, first compound 0.00316 µM
[4] = second compound 0.0316 µM, first compound 0.01 µM
[5] = second compound 0.0316 µM, first compound 0.0316 µM
[6] = second compound 0.0316 µM, first compound 0.1 µM
[7] = second compound 0.1 µM, first compound 0.000316 µM
[8] = second compound 0.1 µM, first compound 0.001 µM
[9] = second compound 0.1 µM, first compound 0.00316 µM
[10] = second compound 0.1 µM, first compound 0.01 µM
[11] = second compound 0.1 µM, first compound 0.0316 µM
[12] = second compound 0.1 µM, first compound 0.1 µM
[13] = second compound 0.316 µM, first compound 0.000316 µM
[14] = second compound 0.316 µM, first compound 0.001 µM
[15] = second compound 0.316 µM, first compound 0.00316 µM
[16] = second compound 0.316 µM, first compound 0.01 µM
[17] = second compound 0.316 µM, first compound 0.0316 µM
[18] = second compound 0.316 µM, first compound 0.1 µM
[19] = second compound 1 µM, first compound 0.000316 µM
[20] = second compound 1 µM, first compound 0.001 µM
[21] = second compound 1 µM, first compound 0.00316 µM
[22] = second compound 1 µM, first compound 0.01 µM
[23] = second compound 1 µM, first compound 0.0316 µM
[24] = second compound 1 µM, first compound 0.1 µM
[25] = second compound 3.16 µM, first compound 0.000316 µM
[26] = second compound 3.16 µM, first compound 0.001 µM
[27] = second compound 3.16 µM, first compound 0.00316 µM
[28] = second compound 3.16 µM, first compound 0.01 µM
[29] = second compound 3.16 µM, first compound 0.0316 µM
[30] = second compound 3.16 µM, first compound 0.1 µM
[31] = second compound 10 µM, first compound 0.000316 µM
[32] = second compound 10 µM, first compound 0.001 µM
[33] = second compound 10 µM, first compound 0.00316 µM
[34] = second compound 10 µM, first compound 0.01 µM
[35] = second compound 10 µM, first compound 0.0316 µM
[36] = second compound 10 µM, first compound 0.1 µM
[37] = second compound 0.0316 µM, first compound 0.316 µM
[38] = second compound 0.0316 µM, first compound 1 µM
[39] = second compound 0.0316 µM, first compound 3.16 µM
[40] = second compound 0.0316 µM, first compound 10 µM
[41] = second compound 0.1 µM, first compound 0.316 µM
[42] = second compound 0.1 µM, first compound 1 µM
[43] = second compound 0.1 µM, first compound 3.16 µM
[44] = second compound 0.1 µM, first compound 10 µM
[45] = second compound 0.316 µM, first compound 0.316 µM
[46] = second compound 0.316 µM, first compound 1 µM
[47] = second compound 0.316 µM, first compound 3.16 µM
[48] = second compound 0.316 µM, first compound 10 µM
[49] = second compound 1 µM, first compound 0.316 µM
[50] = second compound 1 µM, first compound 1 µM
[51] = second compound 1 µM, first compound 3.16 µM
[52] = second compound 1 µM, first compound 10 µM
[53] = second compound 3.16 µM, first compound 0.316 µM
[54] = second compound 3.16 µM, first compound 1 µM
[55] = second compound 3.16 µM, first compound 3.16 µM
[56] = second compound 3.16 µM, first compound 10 µM
[57] = second compound 10 µM, first compound 0.316 µM
[58] = second compound 10 µM, first compound 1 µM
[59] = second compound 10 µM, first compound 3.16 µM
[60] = second compound 10 µM, first compound 10 µM
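Note: spheroids exposed to agents for seven days before readout.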
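Throughout, for viability, T/C: percent of vehicle DMSO control viability so 100% = untreated growth.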

CC(=O)c1c(C)c2cnc(Nc3ccc(N4CCNCC4)cn3)nc2n(C2CCCC2)c1=O + Cc1nc(NC(=O)N2CCCC2C(N)=O)sc1-c1ccnc(C(C)(C)C(F)(F)F)c1
> 9.50: pIC50 (second compound 3.16 µM) | pIC50 (second compound 10 µM)
inactive: viability, T/C [1] 95.6% | viability, T/C [2] 83.4% | viability, T/C [3] 91.6% | viability, T/C [4] 79.5% | viability, T/C [5] 91.8% | viability, T/C [6] 77.7% | viability, T/C [7] 71.9% | viability, T/C [8] 83.8% | viability, T/C [9] 85.7% | viability, T/C [10] 76.2% | viability, T/C [11] 78.9% | viability, T/C [12] 73.7% | viability, T/C [13] 71.7% | viability, T/C [14] 74.2% | viability, T/C [15] 80.5% | viability, T/C [16] 65.2% | viability, T/C [17] 66.7% | viability, T/C [18] 81.5% | viability, T/C [19] 62.3% | viability, T/C [20] 56.3% | viability, T/C [21] 52.7% | viability, T/C [22] 65.6% | viability, T/C [23] 64.4% | viability, T/C [24] 57.2% | viability, T/C [25] 46.1% | viability, T/C [26] 45.5% | viability, T/C [27] 39.2% | viability, T/C [28] 43.9% | viability, T/C [29] 48.1% | viability, T/C [30] 41.1% | viability, T/C [31] 27.9% | viability, T/C [32] 30.6% | viability, T/C [33] 25.9% | viability, T/C [34] 35.7% | viability, T/C [35] 33.3% | viability, T/C [36] 38.2%
< 7.00: pIC50 (second compound 0.0316 µM) | pIC50 (second compound 0.1 µM) | pIC50 (second compound 0.316 µM) | pIC50 (second compound 1 µM)

CC(C)n1nc(-c2ccc3oc(N)nc3c2)c2c(N)ncnc21 + Cc1nc(NC(=O)N2CCCC2C(N)=O)sc1-c1ccnc(C(C)(C)C(F)(F)F)c1
7.49: pIC50 (second compound 0.0316 µM)
> 9.50: pIC50 (second compound 3.16 µM) | pIC50 (second compound 10 µM)
7.67: pIC50 (second compound 0.316 µM)
7.56: pIC50 (second compound 0.1 µM)
7.90: pIC50 (second compound 1 µM)
inactive: viability, T/C [1] 84.3% | viability, T/C [2] 76% | viability, T/C [3] 98% | viability, T/C [4] 71.5% | viability, T/C [5] 51.7% | viability, T/C [6] 21.3% | viability, T/C [7] 83.8% | viability, T/C [8] 83.1% | viability, T/C [9] 79.8% | viability, T/C [10] 63.9% | viability, T/C [11] 49% | viability, T/C [12] 23% | viability, T/C [13] 82.1% | viability, T/C [14] 73.1% | viability, T/C [15] 75.8% | viability, T/C [16] 59.6% | viability, T/C [17] 44.4% | viability, T/C [18] 20.7% | viability, T/C [19] 56.5% | viability, T/C [20] 53.4% | viability, T/C [21] 61.6% | viability, T/C [22] 48.7% | viability, T/C [23] 42.6% | viability, T/C [24] 19.5% | viability, T/C [25] 43.2% | viability, T/C [26] 55.2% | viability, T/C [27] 47.5% | viability, T/C [28] 40% | viability, T/C [29] 28.6% | viability, T/C [30] 17.2% | viability, T/C [31] 33.2% | viability, T/C [32] 31.1% | viability, T/C [33] 29.6% | viability, T/C [34] 35.4% | viability, T/C [35] 18.8% | viability, T/C [36] 8.12%

CC1(C)CCC(CN2CCN(c3ccc(C(=O)NS(=O)(=O)c4ccc(NCC5CCOCC5)c([N+](=O)[O-])c4)c(Oc4cnc5[nH]ccc5c4)c3)CC2)=C(c2ccc(Cl)cc2)C1 + Cc1nc(NC(=O)N2CCCC2C(N)=O)sc1-c1ccnc(C(C)(C)C(F)(F)F)c1
5.56: pIC50 (second compound 3.16 µM)
5.38: pIC50 (second compound 0.316 µM)
> 7.50: pIC50 (second compound 10 µM)
5.28: pIC50 (second compound 0.1 µM)
active: viability, T/C [40] 4.76% | viability, T/C [44] 2.88% | viability, T/C [48] 3.65% | viability, T/C [52] 3.88% | viability, T/C [56] 2.29% | viability, T/C [60] 1.57%
inactive: viability, T/C [5] 91.7% | viability, T/C [6] 77.8% | viability, T/C [37] 96.2% | viability, T/C [38] 96.8% | viability, T/C [39] 89.8% | viability, T/C [11] 83.1% | viability, T/C [12] 87.5% | viability, T/C [41] 83.2% | viability, T/C [42] 80.9% | viability, T/C [43] 94.4% | viability, T/C [17] 92.8% | viability, T/C [18] 86.1% | viability, T/C [45] 75.5% | viability, T/C [46] 84% | viability, T/C [47] 64% | viability, T/C [23] 63.6% | viability, T/C [24] 63.6% | viability, T/C [49] 64% | viability, T/C [50] 65.6% | viability, T/C [51] 63.1% | viability, T/C [29] 59.1% | viability, T/C [30] 53.5% | viability, T/C [53] 46.3% | viability, T/C [54] 55.1% | viability, T/C [55] 49.4% | viability, T/C [35] 32.3% | viability, T/C [36] 39.4% | viability, T/C [57] 38.9% | viability, T/C [58] 34% | viability, T/C [59] 36.1%
5.27: pIC50 (second compound 0.0316 µM)
5.39: pIC50 (second compound 1 µM)

CCCS(=O)(=O)Nc1ccc(F)c(C(=O)c2c[nH]c3ncc(-c4ccc(Cl)cc4)cc23)c1F + Cc1nc(NC(=O)N2CCCC2C(N)=O)sc1-c1ccnc(C(C)(C)C(F)(F)F)c1
5.32: pIC50 (second compound 0.1 µM)
5.38: pIC50 (second compound 0.316 µM)
active: viability, T/C [40] 4.52% | viability, T/C [44] 3.91% | viability, T/C [48] 5.17% | viability, T/C [52] 4.7% | viability, T/C [56] 7.19% | viability, T/C [60] 4.33%
5.29: pIC50 (second compound 0.0316 µM)
5.46: pIC50 (second compound 1 µM)
inactive: viability, T/C [5] 94.2% | viability, T/C [6] 95.6% | viability, T/C [37] 79.9% | viability, T/C [38] 84.7% | viability, T/C [39] 83.7% | viability, T/C [11] 84.3% | viability, T/C [12] 84.3% | viability, T/C [41] 86.2% | viability, T/C [42] 96.3% | viability, T/C [43] 75.1% | viability, T/C [17] 73.2% | viability, T/C [18] 62% | viability, T/C [45] 80.9% | viability, T/C [46] 78.2% | viability, T/C [47] 63.4% | viability, T/C [23] 58.1% | viability, T/C [24] 52.7% | viability, T/C [49] 64.8% | viability, T/C [50] 57.5% | viability, T/C [51] 54.2% | viability, T/C [29] 52.2% | viability, T/C [30] 38.9% | viability, T/C [53] 50.9% | viability, T/C [54] 54.1% | viability, T/C [55] 37.2% | viability, T/C [35] 39.7% | viability, T/C [36] 35.7% | viability, T/C [57] 43.7% | viability, T/C [58] 37.8% | viability, T/C [59] 21.2%
> 7.50: pIC50 (second compound 10 µM)
7.50: pIC50 (second compound 3.16 µM)
